Laboratory results from ChEMBL document CHEMBL1124008, “Synthesis and antifolate activity of 5-methyl-5,10-dideaza analogues of aminopterin and folic acid and an alternative synthesis of 5,10-dideazatetrahydrofolic acid, a potent inhibitor of glycinamide ribonucleotide formyltransferase” (J Med Chem, 1988).
pIC50, pKi: −log10 of the molar value.

Legend:
Dihydrofolate reductase [1] = target: T1, Dihydrofolate reductase (Mus musculus, UniProt P00375); assay: Evaluated for inhibition of dihydrofolate reductase (DHFR) isolated from L1210 cells; type: cell-based
T1 sequence (P00375 whole entry): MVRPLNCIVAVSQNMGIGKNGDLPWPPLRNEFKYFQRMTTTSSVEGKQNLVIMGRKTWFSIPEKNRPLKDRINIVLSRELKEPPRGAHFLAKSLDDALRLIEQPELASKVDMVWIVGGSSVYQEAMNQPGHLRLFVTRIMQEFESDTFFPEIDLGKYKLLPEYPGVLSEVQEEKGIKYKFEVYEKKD

Dihydrofolate reductase [2] = target: Dihydrofolate reductase (Lactobacillus casei, UniProt P00381); assay: Evaluated for inhibition of dihydrofolate reductase (DHFR) from Lactobacillus casei; set-up: species or system Lacticaseibacillus casei
[3] = target: T2, Trifunctional purine biosynthetic protein adenosine-3 (Mus musculus, UniProt Q64737); assay: Inhibition of GAR transformylase from mammalian L1210 cells; type: cell-based
T2 sequence (Q64737 whole entry): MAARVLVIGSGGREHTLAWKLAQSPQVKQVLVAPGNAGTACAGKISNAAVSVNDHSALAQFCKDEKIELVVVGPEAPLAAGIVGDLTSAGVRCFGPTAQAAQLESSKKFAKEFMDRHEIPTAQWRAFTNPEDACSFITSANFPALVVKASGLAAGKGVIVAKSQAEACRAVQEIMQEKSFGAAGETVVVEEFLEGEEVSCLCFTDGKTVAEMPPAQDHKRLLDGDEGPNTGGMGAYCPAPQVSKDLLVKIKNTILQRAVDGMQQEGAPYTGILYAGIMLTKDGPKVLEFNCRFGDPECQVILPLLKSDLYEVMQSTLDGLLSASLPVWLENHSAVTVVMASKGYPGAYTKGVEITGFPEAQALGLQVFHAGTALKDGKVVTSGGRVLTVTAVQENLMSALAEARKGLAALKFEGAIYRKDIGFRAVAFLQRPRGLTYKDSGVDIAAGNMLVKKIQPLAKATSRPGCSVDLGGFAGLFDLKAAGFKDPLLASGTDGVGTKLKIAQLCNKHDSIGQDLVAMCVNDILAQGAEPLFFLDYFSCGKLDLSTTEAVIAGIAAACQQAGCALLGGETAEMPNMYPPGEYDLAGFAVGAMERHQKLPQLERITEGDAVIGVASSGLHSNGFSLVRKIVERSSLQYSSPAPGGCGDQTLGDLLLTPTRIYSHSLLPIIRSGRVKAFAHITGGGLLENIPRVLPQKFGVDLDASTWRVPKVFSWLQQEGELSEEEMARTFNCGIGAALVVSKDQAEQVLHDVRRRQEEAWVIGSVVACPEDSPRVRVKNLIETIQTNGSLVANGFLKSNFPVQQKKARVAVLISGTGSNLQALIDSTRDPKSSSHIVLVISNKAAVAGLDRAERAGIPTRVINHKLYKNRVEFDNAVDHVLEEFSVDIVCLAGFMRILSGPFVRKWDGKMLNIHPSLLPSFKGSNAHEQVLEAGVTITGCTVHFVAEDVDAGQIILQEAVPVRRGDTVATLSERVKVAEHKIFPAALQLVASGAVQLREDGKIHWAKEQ

Thymidylate synthase = target: T3, Thymidylate synthase (Lactobacillus casei, UniProt P00469); assay: Evaluated for inhibition of thymidylate synthase (TS) from Lactobacillus casei; set-up: species or system Lacticaseibacillus casei
T3 sequence (P00469 whole entry): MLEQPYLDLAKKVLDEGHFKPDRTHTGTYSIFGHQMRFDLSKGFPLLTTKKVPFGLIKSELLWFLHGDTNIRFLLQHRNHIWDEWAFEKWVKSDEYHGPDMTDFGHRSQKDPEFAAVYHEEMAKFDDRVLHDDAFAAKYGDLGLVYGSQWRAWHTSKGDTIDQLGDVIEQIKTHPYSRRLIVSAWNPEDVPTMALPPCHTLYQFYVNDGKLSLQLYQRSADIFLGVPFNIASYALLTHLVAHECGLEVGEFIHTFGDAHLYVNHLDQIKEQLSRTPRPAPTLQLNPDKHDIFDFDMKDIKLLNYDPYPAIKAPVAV

[4] = target: Trifunctional purine biosynthetic protein adenosine-3 (Homo sapiens) (UniProt P22102); assay: Inhibition of GAR transformylase from mammalian Manca
L1210 [5] = assay: Evaluated for cell growth inhibition of L1210 cells in cultures; type: functional, cell-based; conditions: Mus musculus
L1210 [6] = assay: Influx characteristics toward L1210 cells was evaluated; type: functional, cell-based; conditions: Mus musculus
L1210 [7] = assay: Efflux characteristics in the L1210 cells was evaluated; type: functional, Mus musculus

Chain of Trifunctional purine biosynthetic protein adenosine-3 (Homo sapiens) (P22102 whole entry, looked up): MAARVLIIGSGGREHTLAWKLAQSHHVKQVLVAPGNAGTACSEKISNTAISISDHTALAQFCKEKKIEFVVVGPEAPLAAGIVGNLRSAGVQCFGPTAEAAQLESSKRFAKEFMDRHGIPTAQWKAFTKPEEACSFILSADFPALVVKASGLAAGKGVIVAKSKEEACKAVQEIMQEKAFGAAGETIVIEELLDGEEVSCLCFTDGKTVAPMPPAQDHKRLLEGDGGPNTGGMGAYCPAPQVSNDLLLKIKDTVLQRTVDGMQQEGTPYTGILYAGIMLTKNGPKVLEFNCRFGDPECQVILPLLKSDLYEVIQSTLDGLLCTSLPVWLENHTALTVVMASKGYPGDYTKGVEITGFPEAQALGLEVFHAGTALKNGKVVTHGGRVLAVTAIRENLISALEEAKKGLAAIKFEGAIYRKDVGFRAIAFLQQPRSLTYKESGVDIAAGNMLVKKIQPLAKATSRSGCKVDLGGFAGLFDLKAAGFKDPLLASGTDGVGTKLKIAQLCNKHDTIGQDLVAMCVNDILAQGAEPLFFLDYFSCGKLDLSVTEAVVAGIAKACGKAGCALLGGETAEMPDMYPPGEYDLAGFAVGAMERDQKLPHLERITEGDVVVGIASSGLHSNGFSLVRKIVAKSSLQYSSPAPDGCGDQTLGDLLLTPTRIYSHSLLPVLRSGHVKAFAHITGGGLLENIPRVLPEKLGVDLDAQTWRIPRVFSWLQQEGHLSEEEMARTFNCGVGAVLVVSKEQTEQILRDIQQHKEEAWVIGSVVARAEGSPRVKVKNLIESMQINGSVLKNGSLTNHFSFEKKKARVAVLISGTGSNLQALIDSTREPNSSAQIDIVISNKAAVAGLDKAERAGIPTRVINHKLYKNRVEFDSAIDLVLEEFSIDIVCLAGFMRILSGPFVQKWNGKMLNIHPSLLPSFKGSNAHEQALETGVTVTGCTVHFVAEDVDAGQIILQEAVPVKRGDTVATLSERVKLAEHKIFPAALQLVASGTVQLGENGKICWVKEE
Chain of Dihydrofolate reductase (Lactobacillus casei, UniProt P00381) (P00381 whole entry): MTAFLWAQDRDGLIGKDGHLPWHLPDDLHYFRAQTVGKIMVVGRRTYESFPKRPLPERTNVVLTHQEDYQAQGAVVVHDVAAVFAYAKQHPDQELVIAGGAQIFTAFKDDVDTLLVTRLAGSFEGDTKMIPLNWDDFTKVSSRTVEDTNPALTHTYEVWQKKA

SMILES	pKi (Dihydrofolate reductase [1])	pIC50 (Dihydrofolate reductase [2])	pIC50 [3]	pIC50 (Thymidylate synthase)	pIC50 [4]	pIC50 (L1210 [5])	Km (L1210 [6])	k (L1210 [7])
Cc1c(CCc2ccc(C(=O)NC(CCC(=O)O)C(=O)O)cc2)cnc2nc(N)[nH]c(=O)c12 (stereo not given)	< 9.00	4.80	< 4.70	4.36	< 4.70			
Cc1c(CCc2ccc(C(=O)NC(CCC(=O)O)C(=O)O)cc2)cnc2nc(N)nc(O)c12 (stereo not given)						4.44	18.8 µM	
Cc1c(CCc2ccc(C(=O)NC(CCC(=O)O)C(=O)O)cc2)cnc2nc(N)nc(N)c12 (stereo not given)	10.55	7.64		5.54		7.63	1.25 µM	0.5 min⁻¹
CCC1c2c(O)nc(N)nc2NCC1CCc1ccc(C(=O)NC(CCC(=O)O)C(=O)O)cc1 (racemic)	< 9.00	4.72	6.30	< 4.00	6.30	7.24	2.48 µM	
CC1c2c(O)nc(N)nc2NCC1CCc1ccc(C(=O)NC(CCC(=O)O)C(=O)O)cc1 (racemic)	< 9.00	< 4.00	4.10	< 4.00	4.85	6.31	1.62 µM	
CN(Cc1cnc2nc(N)nc(N)c2n1)c1ccc(C(=O)N[C@@H](CCC(=O)O)C(=O)O)cc1 [METHOTREXATE]						8.68	3.95 µM	0.22 min⁻¹
